Tested on: patients with postpartum depression (PPD)
Assay: Clinical trial of inhaled 5-MeO-DMT (individualized dosing regimen) in postpartum depression; one patient, 6 mg then 12 mg
Conditions: n=1; for MADRS Concentration Difficulties improvement / MADRS Concentration Difficulties score / MADRS Reduced appetite improvement / MADRS Reduced appetite score / MADRS Suicidal Thoughts improvement / MADRS Suicidal Thoughts score: baseline 0; for MADRS Inability to Feel improvement / MADRS Inability to Feel score / MADRS Lassitude improvement / MADRS Lassitude score: baseline 3; for MADRS Pessimistic Thoughts improvement / MADRS Pessimistic Thoughts score / MADRS Reported sadness improvement / MADRS Reported sadness score: baseline 4
Method: The single-arm, open-label clinical trial will involve 15 adult female patients with clinically diagnosed postpartum depression (PPD).
The second dose (12 mg) will only be administered if: • a. […] The 6 mg dose was safe and well-tolerated according to the investigator, • c. Any psychoactive effects (PsE) of the prior dose have subsided, and • d. Pre-dose vital parameters and forced expiratory volume in one second (FEV1) are in normal range, or if outside of the normal range, are not clinically significant according to the investigator. • 3. Similarly, a third dose (18 mg) will only be administered if: • a. […] The 12 mg dose was safe and well-tolerated according to the investigator, and • c. Any PsE of the prior dose have subsided, and • d. Pre-dose vital parameters and forced expiratory volume in one second (FEV1) are in normal range, or if outside of the normal range, are not clinically significant according to the investigator.
The patients will be assessed for a peak psychedelic experience (based on a patient-scored visual analogue scale, the PE scale), sedation, and other endpoints after dosing.
Follow-up visits are planned for Day 1, and Day 7 after the dosing day.
The following criteria must be met by all patients considered for clinical trial participation: • 1. Is female and in the age range between 18 and 45 years (inclusive) at screening. • 2. Has a body mass index (BMI) in the range of 18.5 and 35 kg/m^2 (inclusive) at screening. • 3. Meets the trial criteria for PPD as assessed by a trial psychiatrist or registered psychologist: • a. Diagnosis of Major Depressive Disorder without psychotic features, confirmed by the Mini-International Neuropsychiatric Interview (MINI), with peri-partum onset that began no earlier than gestation and no later than the first 4 weeks postpartum. • b. Has a Montgomery-Åsberg Depression Rating Scale (MADRS) total score of equal to or greater than 28 at screening and pre-dose on Day 0. • 6. […] Patients must have a negative pregnancy test at screening and on the pre-test day (Day −1). • 5. Is willing to delay start of other antidepressant or anxiety medication until after the end of the trial at Day 7 and agrees to keep any psychotherapy unchanged during the trial.
A potential patient who meets any of the following key exclusion criteria will be excluded from participation in this trial: • 1. Has, based on history, psychiatric assessment, and evaluation of the MINI, a current or prior diagnosis of bipolar disorder, a manic or hypomanic episode, a psychotic disorder, Major Depressive Disorder (MDD) or other mood disorder with psychotic features, obsessive compulsive disorder, post-traumatic stress disorder (PTSD), autism spectrum disorder, borderline personality disorder, schizophrenia, delusional disorder, paranoid personality disorder, schizoaffective disorder, clinically significant intellectual disability, or any other psychiatric comorbidity that renders the patient unsuitable for the trial according to the investigator's judgment. • 2. Has one or more first or second degree relatives with a current or previously diagnosed bipolar disorder, psychotic disorder or other mood disorder (including MDD) with psychotic features. • 3. Is in the judgement of a trial psychiatrist or registered psychologist, at significant risk for suicide based on history, psychiatric assessment, and evaluation of suicidal ideation and suicidal behaviour based on the Columbia-Suicide Severity Rating Scale (C-SSRS). • 4. Has taken anti-depressive medication within 14 days or 5 half-lives (whichever is longer) prior to dosing (exception: within the last 5 weeks in the case of fluoxetine). • 5.

COc1ccc2[nH]cc(CCN(C)C)c2c1 [5-MeO-DMT]
Adverse events (cramping left abdominal pain and headache, Day 0): mild, short-lasting and resolved spontaneously | Criteria for MADRS response (at least 50% improvement) and MADRS remission (total score <=10): fulfilled standard criteria | ECG (3 hours), safety laboratory analyses (7 days), CADSS (3 hours, 1 day, 7 days): unremarkable | Tolerability of IDR (6 mg followed by 12 mg, inhalation): well tolerated | Tolerability of the inhalation procedure: well tolerated with no inhalation-related adverse events | MADRS Concentration Difficulties improvement (2 hr): 0 | MADRS Concentration Difficulties score (2 hr): 0 | MADRS Reduced appetite improvement (2 hr): 0 | MADRS Reduced appetite score (2 hr): 0 | MADRS Suicidal Thoughts improvement (2 hr): 0 | MADRS Suicidal Thoughts score (2 hr): 0 | MADRS Inability to Feel improvement (2 hr): 3 | MADRS Inability to Feel score (2 hr): 0 | MADRS Lassitude improvement (2 hr): 3 | MADRS Lassitude score (2 hr): 0 | MADRS Pessimistic Thoughts improvement (2 hr): 4 | MADRS Pessimistic Thoughts score (2 hr): 0 | MADRS Reported sadness improvement (2 hr): 4 | MADRS Reported sadness score (2 hr): 0 | MADRS Apparent sadness improvement (2 hr, baseline 5): 5 | MADRS Apparent sadness score (2 hr, baseline 5): 0 | MADRS Inner Tension improvement (2 hr, baseline 5): 5 | MADRS Inner Tension score (2 hr, baseline 5): 0 | MADRS Reduced Sleep improvement (2 hr, baseline 5): 0 | MADRS Reduced Sleep score (2 hr, baseline 5): 5 | MADRS Concentration Difficulties improvement (Day 1): 0 | MADRS Concentration Difficulties score (Day 1): 0 | MADRS Reduced appetite improvement (Day 1): 0 | MADRS Reduced appetite score (Day 1): 0 | MADRS Suicidal Thoughts improvement (Day 1): 0 | MADRS Suicidal Thoughts score (Day 1): 0 | BPRS Blunted affect improvement (Day 1, baseline 1): 0 | BPRS Blunted affect score (Day 1, baseline 1): 1 | BPRS Conceptual disorganization improvement (Day 1, baseline 1): 0 | BPRS Conceptual disorganization score (Day 1, baseline 1): 1 | BPRS Disorientation improvement (Day 1, baseline 1): 0 | BPRS Disorientation score (Day 1, baseline 1): 1 | BPRS Grandiosity improvement (Day 1, baseline 1): 0 | BPRS Grandiosity score (Day 1, baseline 1): 1 | BPRS Hallucinatory behaviour improvement (Day 1, baseline 1): 0 | BPRS Hallucinatory behaviour score (Day 1, baseline 1): 1 | BPRS Hostility improvement (Day 1, baseline 1): 0 | BPRS Hostility score (Day 1, baseline 1): 1 | BPRS Mannerisms and Posturing improvement (Day 1, baseline 1): 0 | BPRS Mannerisms and Posturing score (Day 1, baseline 1): 1 | BPRS Motor retardation improvement (Day 1, baseline 1): 0 | BPRS Motor retardation score (Day 1, baseline 1): 1 | BPRS Suspiciousness improvement (Day 1, baseline 1): 0 | BPRS Suspiciousness score (Day 1, baseline 1): 1 | BPRS Uncooperativeness improvement (Day 1, baseline 1): 0 | BPRS Uncooperativeness score (Day 1, baseline 1): 1 | BPRS Unusual Thought Content improvement (Day 1, baseline 1): 0 | BPRS Unusual Thought Content score (Day 1, baseline 1): 1 | BPRS Excitement improvement (Day 1, baseline 2): 1 | BPRS Excitement score (Day 1, baseline 2): 1 | MADRS Inability to Feel improvement (Day 1): 3 | MADRS Inability to Feel score (Day 1): 0 | MADRS Lassitude improvement (Day 1): 3 | MADRS Lassitude score (Day 1): 0 | MADRS Pessimistic Thoughts improvement (Day 1): 4 | MADRS Pessimistic Thoughts score (Day 1): 0 | MADRS Reported sadness improvement (Day 1): 4 | MADRS Reported sadness score (Day 1): 0 | BPRS Emotional withdrawal improvement (Day 1, baseline 5): 4 | BPRS Emotional withdrawal score (Day 1, baseline 5): 1 | MADRS Apparent sadness improvement (Day 1, baseline 5): 5 | MADRS Apparent sadness score (Day 1, baseline 5): 0 | MADRS Inner Tension improvement (Day 1, baseline 5): 5 | MADRS Inner Tension score (Day 1, baseline 5): 0 | MADRS Reduced Sleep improvement (Day 1, baseline 5): 5 | MADRS Reduced Sleep score (Day 1, baseline 5): 0 | BPRS Depressive Mood improvement (Day 1, baseline 6): 5 | BPRS Depressive Mood score (Day 1, baseline 6): 1 | BPRS Guilt feelings improvement (Day 1, baseline 6): 5 | BPRS Guilt feelings score (Day 1, baseline 6): 1 | BPRS Somatic Concern improvement (Day 1, baseline 6): 5 | BPRS Somatic Concern score (Day 1, baseline 6): 1 | BPRS Tension score (Day 1, baseline 6): 1 | BPRS Anxiety improvement (Day 1, baseline 7): 6 | BPRS Anxiety score (Day 1, baseline 7): 1 | BIMF item 2 (I feel rested) score (Day 7, Day 0 score 0): 2 | BIMF item 19 (getting better at taking care of my baby) score (Day 7, Day 0 score 0): 1 | BIMF item 18 (Anxiety or worry often interferes with my mothering ability) score (Day 7, Day 0 score 2): 5 | BIMF item 16 (I worry about how other people judge me (as a mother)) score (Day 7, Day 0 score 3): 5 | BIMF item 13 (taking good care of my physical needs) score (Day 7, Day 0 score 4): 5 | BIMF item 4 (My baby and I understand each other) score (Day 7, Day 0 score 5): 5 | BIMF item 5 (able to relax and enjoy time with my baby) score (Day 7, Day 0 score 5): 6 | BIMF item 9 (getting enough encouragement from other people) score (Day 7, Day 0 score 5): 6 | BIMF item 10 (I trust my own feelings (instincts) when taking care of my baby) score (Day 7, Day 0 score 5): 6 | BIMF item 11 (I take a little time each week to do something for myself) score (Day 7, Day 0 score 5): 6 | BIMF item 15 (My baby and I are getting into a routine) score (Day 7, Day 0 score 5): 6 | BIMF item 17 (able to take care of my baby and my other responsibilities) score (Day 7, Day 0 score 5): 5 | BIMF item 1 (I am a good mother) score (Day 7, Day 0 score 6): 6 | BIMF item 3 (comfortable with the way I've chosen to feed my baby) score (Day 7, Day 0 score 6): 6 | BIMF item 6 (people I can trust to care for my baby when I need a break) score (Day 7, Day 0 score 6): 6 | BIMF item 8 (getting enough adult interaction) score (Day 7, Day 0 score 6): 6 | BIMF item 12 (taking good care of my baby's physical needs) score (Day 7, Day 0 score 6): 6 | BIMF item 14 (good decisions about my baby's health and well being) score (Day 7, Day 0 score 6): 6 | BIMF item 20 (satisfied with the job I am doing as a new mother) score (Day 7, Day 0 score 6): 5 | MADRS Concentration Difficulties improvement (Day 7): 0 | MADRS Concentration Difficulties score (Day 7): 0 | MADRS Reduced appetite improvement (Day 7): 0 | MADRS Reduced appetite score (Day 7): 0

Source: US20250205200A1, “5-METHOXY-N,N-[…][…] THE TREATMENT OF […]” (GH RESEARCH IRELAND LIMITED, priority 2022, published 2025)
